For the test, the system named is stroke induced mice. Description: Stroke animal model: transient middle cerebral artery occlusion (tMCAO), infarct size by TTC staining. Particulars: individual animals, 3.2 mg/kg i.p. at 2 h and 12 h, 1 h occlusion, 23 h reperfusion, C57Bl6 mice. The format is in vivo. As to the method: Mice (10-12 wk), wild type C57BI6, 6 animals, were used:
Test (n=3) stroke induced mouse treated i.p. with inventive compound M4 (N^2-(3,4-dimethylphenyl)-6-((4-(3-methoxyphenyl)piperazin-1-yl)methyl)-1,3,5-triazine-2,4-diamine).
M4 preparation for intra peritoneal i.p. administration: 3.5 mg of M4 were first dissolved in 1 ml of DMSO. After the substance was totally dissolved, 5 ml of 20% Cremophor ELP in PBS (phosphate buffered saline solution) was added. Thereafter an additional 4 ml of PBS was added. The 20% Cremophor ELP solution was prepared by dissolving 10.5 g of Cremophor in 50 ml of PBS.
Injection volume of M4: The dose was 3.2 mg/kg, calculated for each animal at each event of administration (2 h and 12 h).
• 1. Transient middle cerebral artery occlusion (tMCAO) by blocking with a filament for 1 h. • 2. Reperfusion after 1 h by removing filament • 3. Injection of M4 by i.p. after 2 h and repeated injection i.p. after 12 h • 4. Sacrifice the animal after 24 h and infarct size is determined by triphenyl tetrazolium chloride (TTC) staining—Thus the procedure of middle cerebral artery occlusion (MCAO); 1 h occlusion and 23 h reperfusion. • 5. […]
Mice were killed 24 hours after tMCAO. […] The occurrence of Intra Cerebral Hemorrhage (ICH) was macroscopically assessed on whole brains and again after the 2-mm-thick coronal brain slices were cut (see above) before TTC staining. […]

“And” between values parts separate entries of the source, which are not always exact repeats. Equal values may be shown once.

Consider `COc1cccc(N2CCN(Cc3nc(N)nc(Nc4ccc(C)c(C)c4)n3)CC2)c1` [M4, N^2-(3,4-dimethylphenyl)-6-((4-(3-methoxyphenyl)piperazin-1-yl)methyl)-1,3,5-triazine-2,4-diamine], for which the Infarct volume was 73 mm^3 and 145 mm^3 and 134 mm^3.
